What all share (format): cell-based, Plasmodium falciparum
Assay [1] concerns PfCRT variant F203A. Put plainly: CQ uptake assay, oocytes expressing F203A. The protocol:
(§1) Site-directed mutagenesis of PfCRT^Dd2 was performed as described using the megaprimer method with overlap extension[21],[54]. The primer pairs used are listed in Supplementary Table 6. Please note that a codon-optimized and oocyte-adapted version of PfCRT^Dd2 was used[22] (Supplementary Fig. 16). The resulting DNA fragment was cloned into the SP64T expression vector and verified by sequencing.
(§2) Oocytes were obtained as described previously. Briefly, adult (>2 years old) female X. laevis frogs (NASCO) were anesthetized in a cooled solution of ethyl 3-amino benzoate methanesulfonate (0.1%, w/v), followed by a surgical removal of parts of the ovary. The ovary lobes were carefully dissected and small pieces of oocytes were incubated in Ca^2+-free ND96 buffer (96 mM NaCl, 2 mM KCl, 1 mM MgCl2 buffered with 5 mM HEPES/NaOH, pH 7.5) supplemented with collagenase D (0.1%, w/v; Roche), BSA (0.5%, w/v), and 9 mm Na2HPO4 at 18 °C for 14-16 h while gentle shaking. After incubation, the oocytes were carefully washed several times with ND96 buffer (96 mM NaCl, 2 mM KCl, 1.8 mM CaCl2, 1 mM MgCl2 buffered with 5 mM HEPES/NaOH, pH 7.5) supplemented with 100 mg l^−1 gentamycin). Defolliculated and healthy-looking stage V-VI oocytes were manually selected for RNA microinjection. The RNA was generated as following: The codon-optimized sequences of PfCRT variants were cloned into the pSP64T expression vector. After vector linearization using the restriction endonucleases BamHI or SalI (New England Biolabs), transcription was performed using the in vitro SP6 mMessage mMachine Kit (Ambion)[34]. The obtained RNA was kept at −80 °C and diluted with nuclease-free water to a concentration of 0.6 μg μl^−1. Precision-bore glass capillary tubes (3.5-inch glass capillaries; Drummond Scientific Co.) were pulled on a vertical puller (P-87 Flaming/Brown micropipette puller, Sutter Instrument Co.), graduated, and placed on a microinjector (Nanoject II Auto-Nanoliter Injector, Drummond Scientific Co.). 50 nl of nuclease-free water alone (control oocytes) or 50 nl of 0.6 μg μl^−1 RNA were injected under stereomicroscopic control. Injected oocytes were incubated for 46–72 h at 18 °C with twice-daily buffer changes before usage in experiments.
(§3) Drug uptake assays were performed as described previously[21],[22],[24],[34]. […] The direction of radio-labeled drug transport is here from the mostly acidic extracellular solution (pH 4.5 or 6.0, as indicated) into the oocyte cytosol (pH ∼ 7.2), which corresponds to the efflux of drug from the acidic digestive vacuole (pH 5.2) into the parasite cytoplasm (pH 7.2). The topology of PfCRT in the oolemma is such that both the N- and C-terminus face the extracellular milieu[3],[22]. In the parasite, the N- and C-terminus face the lumen of the digestive vacuole. CQ uptake kinetics were performed by incubating oocytes in ND96 buffer adjusted to a pH of 4.5, 5.0, 5.5, or 6.0 and supplemented with 50 nM [^3H]CQ and one of 7 different CQ concentrations (10 µM, 50 µM, 100 µM, 200 µM, 300 µM, 400 µM, 500 µM CQ). The reaction was stopped at the 60 min time point, which is in the linear uptake range[22],[34] (Supplementary Fig. 17). […] The radioactivity of each sample was measured using a liquid scintillation analyzer Tri-Carb 4910 TR (PerkinElmer). Oocytes that were injected with water instead of RNA were analyzed in parallel, representing the uptake of a drug by diffusion and/or endogenous permeation pathways. […]

For assay [2], the system named is PfCRT variant F319A. Description: CQ uptake assay, oocytes expressing F319A. The protocol:
as §1, §2, §3

Assay [3] deals with PfCRT variant E207Q. Put plainly: CQ uptake assay, oocytes expressing E207Q. The protocol:
as §1, §2
Drug uptake assays were performed as described previously[21],[22],[24],[34]. […] The direction of radio-labeled drug transport is here from the mostly acidic extracellular solution (pH 4.5 or 6.0, as indicated) into the oocyte cytosol (pH ∼ 7.2), which corresponds to the efflux of drug from the acidic digestive vacuole (pH 5.2) into the parasite cytoplasm (pH 7.2). The topology of PfCRT in the oolemma is such that both the N- and C-terminus face the extracellular milieu[3],[22]. In the parasite, the N- and C-terminus face the lumen of the digestive vacuole. […] For determination of the amount of drug uptake for each oocyte, the reaction medium was removed and the oocytes were washed three times with 2 ml of ice-cold ND96 buffer. Each oocyte was individually transferred to a scintillation vial containing 5% sodium dodecyl sulfate (200 μl) for lysis. […] Oocytes that were injected with water instead of RNA were analyzed in parallel, representing the uptake of a drug by diffusion and/or endogenous permeation pathways. […] The specific PfCRT-mediated uptake was determined by subtracting the corresponding background value measured in water-injected oocytes from that of PfCRT-expressing oocytes. […]

Assay [4] concerns PfCRT variant E207C. Put plainly: CQ uptake assay, oocytes expressing E207C. Here is the method:
as §1, §2
Drug uptake assays were performed as described previously[21],[22],[24],[34]. […] The direction of radio-labeled drug transport is here from the mostly acidic extracellular solution (pH 4.5 or 6.0, as indicated) into the oocyte cytosol (pH ∼ 7.2), which corresponds to the efflux of drug from the acidic digestive vacuole (pH 5.2) into the parasite cytoplasm (pH 7.2). The topology of PfCRT in the oolemma is such that both the N- and C-terminus face the extracellular milieu[3],[22]. In the parasite, the N- and C-terminus face the lumen of the digestive vacuole. CQ uptake kinetics were performed by incubating oocytes in ND96 buffer adjusted to a pH of 4.5, 5.0, 5.5, or 6.0 and supplemented with 50 nM [^3H]CQ and one of 7 different CQ concentrations (10 µM, 50 µM, 100 µM, 200 µM, 300 µM, 400 µM, 500 µM CQ). The reaction was stopped at the 60 min time point, which is in the linear uptake range[22],[34] (Supplementary Fig. 17). For determination of the amount of drug uptake for each oocyte, the reaction medium was removed and the oocytes were washed three times with 2 ml of ice-cold ND96 buffer. Each oocyte was individually transferred to a scintillation vial containing 5% sodium dodecyl sulfate (200 μl) for lysis. The radioactivity of each sample was measured using a liquid scintillation analyzer Tri-Carb 4910 TR (PerkinElmer). Oocytes that were injected with water instead of RNA were analyzed in parallel, representing the uptake of a drug by diffusion and/or endogenous permeation pathways. The resulting value represents the “background“ level of drug accumulation in oocytes (in-depth discussion in[22]). […]

Where [5] appears, read: F203A, 50 µM CQ, 1 h, mean ± SEM.
Where [6] appears, read: pH 4.5, single replicates, Fig 1d left.
[7] abbreviates: pH 6.0, single replicates, Fig 1d left.
Setting [8] is: F319A, 50 µM CQ, 1 h, mean ± SEM.
Setting [9] is: pH 4.5, individual replicates, Fig 6b.
Where [10] appears, read: pH 6.0, individual replicates, Fig 6b.
The mark [11] stands for this setting: ratio of activity pH 4.5 / pH 6.0.
[12] abbreviates: E207C, 50 µM CQ, 1 h, mean ± SEM.

Where “and” joins values, the source holds several entries; their conditions need not be identical. Identical values can stand only once.

As for `CCN(CC)CCCC(C)Nc1ccnc2cc(Cl)ccc12` (stereo not drawn) [CQ, chloroquine], the “Activity at pH 4.5” value in assay [1] (setting [5]) was found to be 0.93 ± 0.19 pmol h-1 oocyte-1; in assay [2] (setting [8]) it was 0.90 ± 0.25 pmol h-1 oocyte-1; in assay [3] (E207Q, 50 µM CQ, 1 h, mean ± SEM), 2.15 ± 0.52 pmol h-1 oocyte-1; in assay [4] (setting [12]), 1.30 ± 0.11 pmol h-1 oocyte-1. The results for the “Activity at pH 6.0” value in assay [1] (setting [5]), in assay [2] (setting [8]) and in assay [4] (setting [12]) were 2.55 ± 0.14 pmol h-1 oocyte-1, 3.64 ± 0.45 pmol h-1 oocyte-1 and 1.53 ± 0.16 pmol h-1 oocyte-1, respectively. Moreover, the R-value in assay [1] (F203A, CQ transport at pH 4.5 / pH 6.0) worked out at 0.36 ± 0.07; in assay [2] (F319A, CQ transport at pH 4.5 / pH 6.0), 0.26 ± 0.07; in assay [3] (E207Q, CQ transport at pH 4.5 / pH 6.0), 0.88 ± 0.01; in assay [4] (E207C, CQ transport at pH 4.5 / pH 6.0), 0.86 ± 0.09. In addition, the “F203A transport activity pH 4.5” value in assay [1] (setting [6]) was 0.48 pmol oocyte-1 h-1 and 1.22 pmol oocyte-1 h-1 and 1.1 pmol oocyte-1 h-1. The “F203A transport activity pH 6.0” value in assay [1] (setting [7]) was 2.29 pmol oocyte-1 h-1 and 2.47 pmol oocyte-1 h-1 and 2.88 pmol oocyte-1 h-1. The “F319A transport activity pH 4.5” value in assay [2] (setting [6]) is 0.43 pmol oocyte-1 h-1 and 1.48 pmol oocyte-1 h-1 and 0.80 pmol oocyte-1 h-1. For the same compound, the “F319A transport activity pH 6.0” value in assay [2] (setting [7]) is 4.19 pmol oocyte-1 h-1 and 3.55 pmol oocyte-1 h-1 and 3.19 pmol oocyte-1 h-1. Moreover, in assay [3] (setting [9]), the “E207Q transport activity pH 4.5” value is 1.41 pmol oocyte-1 h-1 and 3.42 pmol oocyte-1 h-1 and 1.62 pmol oocyte-1 h-1. In assay [3] (setting [10]), the “E207Q transport activity pH 6.0” value is 1.59 pmol oocyte-1 h-1 and 3.69 pmol oocyte-1 h-1 and 1.95 pmol oocyte-1 h-1. Moreover, the “E207Q R-value” in assay [3] (setting [11]) was 0.89 and 0.93 and 0.83. Besides, the “E207C transport activity pH 4.5” value in assay [4] (setting [9]) is 0.95 pmol oocyte-1 h-1 and 1.34 pmol oocyte-1 h-1 and 1.57 pmol oocyte-1 h-1 and 1.33 pmol oocyte-1 h-1. Besides, the “E207C transport activity pH 6.0” value in assay [4] (setting [10]) is 1.15 pmol oocyte-1 h-1 and 2.00 pmol oocyte-1 h-1 and 1.64 pmol oocyte-1 h-1 and 1.34 pmol oocyte-1 h-1. The “E207C R-value” in assay [4] (setting [11]) is 0.83 and 0.67 and 0.96 and 0.99.

(Values after PMC10349806 (Nature Communications, 2023).)
